Results on three compounds are retold here after BindingDB's records for doi:10.1021/acsmedchemlett.0c00107 (Usona Institute, 2020).

The target of the assay is T1, Estrogen receptor (Homo sapiens, UniProt P03372).
T1 sequence (P03372 whole entry): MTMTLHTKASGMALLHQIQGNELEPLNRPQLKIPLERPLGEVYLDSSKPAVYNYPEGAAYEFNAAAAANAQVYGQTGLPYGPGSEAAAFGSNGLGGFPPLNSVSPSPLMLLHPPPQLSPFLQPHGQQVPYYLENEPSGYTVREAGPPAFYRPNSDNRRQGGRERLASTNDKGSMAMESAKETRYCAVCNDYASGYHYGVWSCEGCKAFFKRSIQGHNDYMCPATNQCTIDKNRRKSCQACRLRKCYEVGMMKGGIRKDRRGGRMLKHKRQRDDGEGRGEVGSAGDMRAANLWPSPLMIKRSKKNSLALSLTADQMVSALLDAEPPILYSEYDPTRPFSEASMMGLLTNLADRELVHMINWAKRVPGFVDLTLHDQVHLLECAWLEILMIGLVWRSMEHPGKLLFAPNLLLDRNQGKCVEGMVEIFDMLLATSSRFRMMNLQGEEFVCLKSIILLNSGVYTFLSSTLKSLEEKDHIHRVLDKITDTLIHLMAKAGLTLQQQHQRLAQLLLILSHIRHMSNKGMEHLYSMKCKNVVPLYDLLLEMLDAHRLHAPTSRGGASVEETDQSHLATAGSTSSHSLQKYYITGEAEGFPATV
The assay is described as follows: Induction of ERalpha protein degradation in human MCF7 cells assessed as reduction in ERalpha protein levels incubated for 24 hrs by In-cell western assay. Particulars: read-out: IC50 (the source's name).
As to `O=C(NCCCCOc1ccc(C(=C2C3CC4CC(C3)CC2C4)c2ccc(O)cc2)cc1)[C@H]1C[C@@H]2C=C[C@H]1C2`, the DC50 was found to be 0.5 nM.
On to `CC(C)(C)OC(=O)N[C@@H](Cc1c[nH]c2ccccc12)C(=O)NCCCCOc1ccc(C(=C2C3CC4CC(C3)CC2C4)c2ccc(O)cc2)cc1`, for which the DC50 was 0.5 nM.
As for `O=C(NCCCCOc1ccc(C(=C2C3CC4CC(C3)CC2C4)c2ccc(O)cc2)cc1)[C@H]1CC[C@H](C(F)(F)F)CC1`, the DC50 was determined as 2 nM.
